Assay results: article PMC4142139 (European Journal of Drug Metabolism and Pharmacokinetics, 2014)

T1: OATP1B1*5 (Homo sapiens, UniProt Q9Y6L6, V174A)
T1 sequence (Q9Y6L6 1-691 V174A): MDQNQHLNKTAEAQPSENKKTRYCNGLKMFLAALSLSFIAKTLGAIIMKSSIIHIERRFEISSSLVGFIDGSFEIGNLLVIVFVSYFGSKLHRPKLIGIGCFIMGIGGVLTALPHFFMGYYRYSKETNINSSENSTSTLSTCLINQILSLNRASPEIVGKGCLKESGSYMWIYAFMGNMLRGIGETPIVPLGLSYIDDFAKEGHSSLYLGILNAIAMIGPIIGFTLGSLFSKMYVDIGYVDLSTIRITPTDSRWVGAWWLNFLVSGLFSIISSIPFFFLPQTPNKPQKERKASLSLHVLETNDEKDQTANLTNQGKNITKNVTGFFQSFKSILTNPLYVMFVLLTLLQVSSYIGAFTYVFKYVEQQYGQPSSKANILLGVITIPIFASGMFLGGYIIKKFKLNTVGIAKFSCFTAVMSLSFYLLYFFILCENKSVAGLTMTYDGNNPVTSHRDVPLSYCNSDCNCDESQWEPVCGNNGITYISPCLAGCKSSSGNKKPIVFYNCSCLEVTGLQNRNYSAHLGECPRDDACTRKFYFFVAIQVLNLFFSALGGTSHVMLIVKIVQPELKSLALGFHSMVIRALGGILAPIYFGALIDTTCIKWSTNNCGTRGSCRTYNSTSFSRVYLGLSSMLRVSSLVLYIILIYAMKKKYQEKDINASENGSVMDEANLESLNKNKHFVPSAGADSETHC

T2: OATP1B1*1a (Homo sapiens, UniProt Q9Y6L6)
T2 sequence (Q9Y6L6 1-691): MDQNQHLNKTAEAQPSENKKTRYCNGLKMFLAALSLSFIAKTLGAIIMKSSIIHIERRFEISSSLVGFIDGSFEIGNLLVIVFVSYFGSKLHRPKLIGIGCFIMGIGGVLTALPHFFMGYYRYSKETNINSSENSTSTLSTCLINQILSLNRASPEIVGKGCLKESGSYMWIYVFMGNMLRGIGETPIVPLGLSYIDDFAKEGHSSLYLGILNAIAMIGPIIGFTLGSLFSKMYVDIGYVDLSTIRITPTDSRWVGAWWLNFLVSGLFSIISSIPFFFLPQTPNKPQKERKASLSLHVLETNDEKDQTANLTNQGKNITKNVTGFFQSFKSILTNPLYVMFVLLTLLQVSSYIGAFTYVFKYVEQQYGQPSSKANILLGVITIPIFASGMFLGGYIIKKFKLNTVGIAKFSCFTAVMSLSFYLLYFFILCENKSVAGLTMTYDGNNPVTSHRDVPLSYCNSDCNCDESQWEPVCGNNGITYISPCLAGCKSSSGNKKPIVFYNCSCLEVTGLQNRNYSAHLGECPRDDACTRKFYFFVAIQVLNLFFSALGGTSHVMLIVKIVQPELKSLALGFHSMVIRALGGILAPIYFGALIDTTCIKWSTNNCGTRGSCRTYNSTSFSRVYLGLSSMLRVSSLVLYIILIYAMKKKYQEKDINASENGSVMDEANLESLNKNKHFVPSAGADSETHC


Experiments:
OATP1B1*5 = biological target: T1, OATP1B1*5; assay: inhibition of rosuvastatin uptake in OATP1B1*5-HEK293T cells, LC/MS; type: cell-based
OATP1B1*1a = biological target: T2, OATP1B1*1a; assay: inhibition of rosuvastatin uptake in OATP1B1*1a-HEK293T cells, LC/MS; type: cell-based
[1] = substrate: CC(C)c1nc(N(C)S(C)(=O)=O)nc(-c2ccc(F)cc2)c1/C=C/[C@@H](O)C[C@@H](O)CC(=O)O; assay: concentration-dependent uptake kinetics; type: cell-based, Homo sapiens

IC50 (OATP1B1*5) [µM]	IC50 (OATP1B1*1a) [µM]	Molecule	Km [1] [µM]
6.07 ± 0.57	6.25 ± 0.42	C[C@H]1[C@H](C)CC[C@]2(C(=O)O)CC[C@]3(C)C(=CC[C@@H]4[C@@]5(C)CC[C@H](O)C(C)(C)[C@@H]5CC[C@]43C)[C@H]12 [UA, 3b-hydroxy-urs-12-en-28-oic-acid]	–
–	–	OATP1B1*1a (Homo sapiens) (protein) MDQNQHLNKTAEAQPSENKKTRYCNGLKMFLAALSLSFIAKTLGAIIMKSSIIHIERRFEISSSLVGFIDGSFEIGNLLVIVFVSYFGSKLHRPKLIGIGCFIMGIGGVLTALPHFFMGYYRYSKETNINSSENSTSTLSTCLINQILSLNRASPEIVGKGCLKESGSYMWIYVFMGNMLRGIGETPIVPLGLSYIDDFAKEGHSSLYLGILNAIAMIGPIIGFTLGSLFSKMYVDIGYVDLSTIRITPTDSRWVGAWWLNFLVSGLFSIISSIPFFFLPQTPNKPQKERKASLSLHVLETNDEKDQTANLTNQGKNITKNVTGFFQSFKSILTNPLYVMFVLLTLLQVSSYIGAFTYVFKYVEQQYGQPSSKANILLGVITIPIFASGMFLGGYIIKKFKLNTVGIAKFSCFTAVMSLSFYLLYFFILCENKSVAGLTMTYDGNNPVTSHRDVPLSYCNSDCNCDESQWEPVCGNNGITYISPCLAGCKSSSGNKKPIVFYNCSCLEVTGLQNRNYSAHLGECPRDDACTRKFYFFVAIQVLNLFFSALGGTSHVMLIVKIVQPELKSLALGFHSMVIRALGGILAPIYFGALIDTTCIKWSTNNCGTRGSCRTYNSTSFSRVYLGLSSMLRVSSLVLYIILIYAMKKKYQEKDINASENGSVMDEANLESLNKNKHFVPSAGADSETHC	19.87 ± 5.96
–	–	OATP1B1*5 (Homo sapiens; V174A) (protein) MDQNQHLNKTAEAQPSENKKTRYCNGLKMFLAALSLSFIAKTLGAIIMKSSIIHIERRFEISSSLVGFIDGSFEIGNLLVIVFVSYFGSKLHRPKLIGIGCFIMGIGGVLTALPHFFMGYYRYSKETNINSSENSTSTLSTCLINQILSLNRASPEIVGKGCLKESGSYMWIYAFMGNMLRGIGETPIVPLGLSYIDDFAKEGHSSLYLGILNAIAMIGPIIGFTLGSLFSKMYVDIGYVDLSTIRITPTDSRWVGAWWLNFLVSGLFSIISSIPFFFLPQTPNKPQKERKASLSLHVLETNDEKDQTANLTNQGKNITKNVTGFFQSFKSILTNPLYVMFVLLTLLQVSSYIGAFTYVFKYVEQQYGQPSSKANILLGVITIPIFASGMFLGGYIIKKFKLNTVGIAKFSCFTAVMSLSFYLLYFFILCENKSVAGLTMTYDGNNPVTSHRDVPLSYCNSDCNCDESQWEPVCGNNGITYISPCLAGCKSSSGNKKPIVFYNCSCLEVTGLQNRNYSAHLGECPRDDACTRKFYFFVAIQVLNLFFSALGGTSHVMLIVKIVQPELKSLALGFHSMVIRALGGILAPIYFGALIDTTCIKWSTNNCGTRGSCRTYNSTSFSRVYLGLSSMLRVSSLVLYIILIYAMKKKYQEKDINASENGSVMDEANLESLNKNKHFVPSAGADSETHC	10.05 ± 4.02
